The values below come from patent US6896895B2, “Carotenoid esters, carotenoid-enriched feeds, and methods of pigmenting foods and foodstuffs” (DSM IP Assets B.V., priority 2000, dated 2005).

A short description of data set [1]: Carotenoid ester content in plasma, back skin and abdominal fat of broilers (HPLC). Format: in vivo, broiler chickens (Ross 308, Ross 508). The note with it: average over doses, Table 4. Here is the method: (§1) Pigmentation efficacy was assessed in egg yolk, in the back skin of the broiler carcass, and in broiler shanks by reflectance colorimetry accompanied by visual scoring (Roche Colour Fan). The deposition of the ethyl-β-apo-8′-carotenoate (control) and the other carotenoid esters was determined in egg yolk and in the broiler back skin. In addition, the carotenoid levels in plasma and abdominal fat were measured.
(§2) The trials were carried out using chickens of the type Ross 308 (trials MC-24/98 and MC-02/99) and Ross 508 (trials MC-11/99, MC-16/99, MC-24/99, and MC-03/00) (Couvir de la Bohardière, F-49290 Saint Laurent de la Plaine). One-day old broiler chickens, separated by sex, were divided by weight into experimental groups of ten animals each and reared in floor pens littered with wood shavings. The chickens were fed a low carotenoid basal grower diet until day 22 (trials MC-24/98, MC-02/99, and MC-11/99) or until day 15 (trials MC-16/99, MC-24/99, and MC-03/00). The low carotenoid basal grower diet contained less than 2 mg total xanthophylls per kg of feed, and its composition is described in Table 2. For the subsequent experimental period of three weeks, the birds received the basal diet supplemented with an appropriate pigment. The feed was given in the form of crumbled pellets during the first week and as pellets thereafter. The animals had unrestricted access to feed and water. A given treatment involved one group of male and one group of female chickens. Each group of chickens was weighed at day 22 (trials MC-24/98, MC-02/99, and MC-11/99) or day 15 (trials MC-16/99, MC-24/99, and MC-03/00) and on day 43. On day 42, five chickens per group were selected at random, labelled, and blood samples were taken from the jugular vein. At the end of the experiment (day 44) the animals were slaughtered in a commercial slaughterhouse (Freyburger, Dannemarie, France). The following day, the color of the skin (hind back of carcasses) and the shanks of the labelled chicken were measured by reflectance colorimetry (Minolta CR 200 apparatus, CIE-Lab system). Samples of the dorsal skin and abdominal fat were obtained, pooled for each experimental group, and the carotenoid concentration was determined. The concentration of carotenoids in feed, plasma, skin, and abdominal fat was determined by standard procedures as described after Tables 1 and 2.
The content of the various carotenoid esters in feed was determined according to the method of Schierle, et al. (J. Schierle , N. Faccin, V. Riegert, Analytical Methods for Vitamins and Carotenoids in Feed, Revised supplement: Determination of Stabilized Apocarotenoic Ester and Canthaxanthin in Premixes and Feeds, Roche publication no. 50771 (1995), publicly available from. F. Hoffmann-La Roche Ltd., CH-4070 Basel). This method was modified in that the mobile phase of the normal-phase HPLC contained 0.5% instead of 7% acetone in n-hexane, improving the separation of the E/Z-isomers of the carotenoid esters. Peaks were related to all-E- and Z-isomers of the various carotenoid esters by chromatography of heat-isomerized solutions of the respective reference substances in n-hexane. The HPLC system was calibrated with the all-E-isomer of ethyl β-apo-8′-carotenoate. The response factor of the various derivatives was deduced from that of ethyl β-apo-8′-carotenoate taking into account the respective molecular weight. The content of the Z-isomer fractions was calculated based on the response of the all-E-isomer and using a correction factor of 1.4 to account for the lower specific absorbance of the Z-isomers.
(§3) The HPLC-system for in-feed analysis was also used to quantify the carotenoid esters in egg yolk, broiler tissues, and broiler plasma, but the extraction procedure was different for the various matrices.
For plasma extraction, 1.0 g of the well-mixed plasma sample was introduced into a 10 ml test tube with 1.0 ml of demineralized water and 4.0 ml of ethanol, and the contents mixed on a Vortex shaker. […]

For data set [2], the system named is skin and shanks of broilers. The data set is described as follows: Reflectance colorimetry and visual classification of skin and shanks of broilers. The data set is classed as in vivo, broiler chickens (Ross 308, Ross 508). Also on record: key to Shanks Visual Classification / Skin Visual Classification: −; (+); +; ++ = good color; o = orange. The note with it: dry carcasses, average over doses, Table 6. As for the experimental part:
as §1, §2
The color of broiler skin and shanks was measured using a tristimulus Minolta CR-300 Chromameter with diffuse D65-illumination and a 0° viewing angle. The color of the skin was read at three different points on the back of the dry broiler carcasses and average values of the triple measurements were recorded. The color of shanks was measured using single measurements at the ball between the toes.
(§4) The color data were expressed as CIE L*a*b*-values including h*(hue) and C* (chroma). The values given in the tables per treatment and trial represent averages of color measurements of four egg yolk pools, ten broiler back skins, or ten broiler shanks (5 males and 5 females).

Data set [3] can be described thus: Carotenoid ester content and deposition rate in egg yolk of laying hens (HPLC). Format: in vivo, laying hens (ISA Brown). The note with it: egg yolk; for Deposition Rate Target Values % of Controls / Ethyl β-apo-8′-carotenoate Equivalents % of Controls: Table 8; for Deposition Rate % of Controls: Table 10. Here is the method: as §1
Each year in February the pigmentation trials are started with a new flock of layers.
(§5) Preceding the trials the hens were fed a low carotenoid basal diet (produced at the CRNA) without carotenoid supplementation for at least 28 days. During the trials, the control group received the low carotenoid basal diet containing less than 2 mg total xanthophylls per kg of feed. The other animals were fed this diet supplemented with the appropriate pigments for three weeks. The diet was given to the animals ad libitum in mash form. The hens had free access to tap water.
Peaks were related to all-E- and Z-isomers of the various carotenoid esters by chromatography of heat-isomerized solutions of the respective reference substances in n-hexane. The HPLC system was calibrated with the all-E-isomer of ethyl β-apo-8′-carotenoate. The response factor of the various derivatives was deduced from that of ethyl β-apo-8′-carotenoate taking into account the respective molecular weight. The content of the Z-isomer fractions was calculated based on the response of the all-E-isomer and using a correction factor of 1.4 to account for the lower specific absorbance of the Z-isomers.
as §3
For the extraction of egg yolk, 10 g of pooled and homogenised yolk were mixed with 10 ml of demineralized water using a dispersion instrument (Polytron). 1.0 g of diluted egg yolk was introduced into a 10 ml test tube with 1.0 ml of demineralized water and 2.0 ml of ethanol, and the contents were mixed on a Vortex shaker. After addition of 4.0 ml of n-hexane, the mixture was further treated as described for plasma.

A further data set has as its system egg yolk. As to the kind of experiment: Egg yolk colour: reflectance colorimetry and Roche Yolk Colour Fan. The data set is classed as in vivo, laying hens (ISA Brown). Conditions: egg yolk, laying hens. Here is the method: as §1
The trials were carried out following the standard experimental design used for egg yolk pigmentation trials at the Roche Research Center for Animal Nutrition (CRNA, F-68305 Village-Neuf, France). Each year in February the pigmentation trials are started with a new flock of layers. At the beginning of the trials the age of the laying hens (192 birds, type ‘ISA Brown’) were as follows:
as §5, with “water. Beside the unsupplemented control treatment, treatments were carried out involving the provision of supplemented feed, the results of these treatments being presented in Tables 7-9.” for “water.”
Egg yolk color was assessed as described by Steinberg, et al. (Arch. Geflügelk 64 (4), 180-187 (2000)). The yolks were manually separated from the whites of the eggs. The isolated yolks of three to six eggs were combined, weighed, and stirred with a glass rod until the color appeared homogeneous. The color hue was visually scored using the Roche Yolk Colour Fan (RYCF, version 1993). An aliquot of the pooled egg yolks was transferred into a glass cuvette yielding an approximately 2 cm thick layer. The color was then measured by means of a Dr. Lange Xeno Color LS 100 spectro-colorimeter with diffuse D65-illumination and a 8° viewing angle.
as §4

Where [4] appears, read: trial H-25/99, 5.0 mg/kg feed, Table 10.
[5] abbreviates: trials H-18, 22/99, 1, 2, 4, 5, 8 mg/kg feed.
Where [6] appears, read: trials H-18, 22/99, 1, 2, 4, 5, 8 mg/kg feed, Table 10.
[7] abbreviates: trial H-05/00, 5.0 mg/kg feed, Table 10.

Marks after values point to notes of the source that are not given here.

For `CC(C=CC=C(C)C=CC1=C(C)CCCC1(C)C)=CC=CC=C(C)C=CC=C(C)C(=O)OC1CCCCC1` [(16), cyclohexyl beta-apo-8′-carotenoate], in data set [1], the “Analytical Content as Equivalent of Ethyl β-apo-8′-carotenoate in % of control Fat” value (from here on “Analytical Content … in % of control Fat”) stood at 38%, the “Analytical Content as Equivalent of Ethyl β-apo-8′-carotenoate in % of control Plasma” value (“Analytical Content … in % of control Plasma” for short) amounted to 60% and the “Analytical Content as Equivalent of Ethyl β-apo-8′-carotenoate in % of control Skin” value (“Analytical Content … in % of control Skin” below) was 44%. Moreover, in data set [2], the “Shanks Chroma C*ab % of Controls” value turned out to be 84%, the “Shanks Color Hue h*ab % of Controls” value is 103%, the “Shanks Visual Classification” value is “(+)” and the “Skin Chroma C*ab % of Controls” value stood at 80%. Moreover, in data set [2], the “Skin Color Hue h*ab % of Controls” value worked out at 95% and the “Skin Visual Classification” value was “+”. For the same compound, in data set [3] (trial H-25/99, 5.0 mg/kg feed), the “Deposition Rate Target Values % of Controls” value came out at 99%, the “Ethyl β-apo-8′-carotenoate Equivalents % of Controls” value is recorded as 82% and the “Deposition Rate % of Controls” value is 99%. For the same compound, the “Color Fan Value % of Controls” value in the data set with egg yolk (trial H-25/99, 5.0 mg/kg feed, Table 8) was determined as 108%. In the data set with egg yolk (setting [4]), the “Chroma C*ab % of Controls” value is reported as 112%, the “Color Fan Value % of Controls” value amounted to 108% and the “Color Hue h*ab % of Controls” value is recorded as 97%.

Turning to `CCC(C)OC(=O)C(C)=CC=CC(C)=CC=CC=C(C)C=CC=C(C)C=CC1=C(C)CCCC1(C)C` (stereo not drawn) [(5), sec. butyl beta-apo-8′-carotenoate], in data set [1], the “Analytical Content … in % of control Fat” value amounted to 53%, the “Analytical Content … in % of control Plasma” value stood at 94% and the “Analytical Content … in % of control Skin” value came to 74%. For the same compound, in data set [2], the “Shanks Chroma C*ab % of Controls” value was 100%, the “Shanks Color Hue h*ab % of Controls” value is 101%, the “Shanks Visual Classification” value is “+” and the “Skin Chroma C*ab % of Controls” value worked out at 100%. Moreover, in data set [2], the “Skin Color Hue h*ab % of Controls” value was 101% and the “Skin Visual Classification” value is reported as “+”. In data set [3] (setting [5]), the “Deposition Rate Target Values % of Controls” value came to 97% and the “Ethyl β-apo-8′-carotenoate Equivalents % of Controls” value was 90%. In addition, the “Deposition Rate % of Controls” value in data set [3] (trials H-18, 22/99, 1, 2, 4, 5, 8 mg/kg feed, comparison within same trials) is reported as 84^1) %. In addition, in the data set with egg yolk (trials H-18, 22/99, 1, 2, 4, 5, 8 mg/kg feed, Table 8), the “Color Fan Value % of Controls” value is recorded as 88%. For the same compound, in the data set on egg yolk (setting [6]), the “Chroma C*ab % of Controls” value came to 103% and the “Color Hue h*ab % of Controls” value worked out at 102%. Besides, the “Color Fan Value % of Controls” value in the data set on egg yolk (trials H-18, 22/99, 1, 2, 4, 5, 8 mg/kg feed, comparison within same trials, Table 10) is given as 93^1) %.

As for `CC(C=CC=C(C)C=CC1=C(C)CCCC1(C)C)=CC=CC=C(C)C=CC=C(C)C(=O)OC1CCCC1` [(15), cyclopentyl beta-apo-8′-carotenoate], in data set [1], the “Analytical Content … in % of control Fat” value was 50%, the “Analytical Content … in % of control Plasma” value is on record as 76% and the “Analytical Content … in % of control Skin” value was determined as 77%. Further, in data set [2], the “Shanks Chroma C*ab % of Controls” value came to 99%, the “Shanks Color Hue h*ab % of Controls” value turned out to be 100%, the “Shanks Visual Classification” value was “++” and the “Skin Chroma C*ab % of Controls” value worked out at 106%. In addition, in data set [2], the “Skin Color Hue h*ab % of Controls” value is 99% and the “Skin Visual Classification” value is “++”. Besides, in data set [3] (trial H-05/00, 5.0 mg/kg feed), the “Deposition Rate Target Values % of Controls” value is 95%, the “Ethyl β-apo-8′-carotenoate Equivalents % of Controls” value is recorded as 95% and the “Deposition Rate % of Controls” value turned out to be 95%. Also, the “Color Fan Value % of Controls” value in the data set on egg yolk (trial H-05/00, 5.0 mg/kg feed, Table 8) stood at 116%. For the same compound, in the data set with egg yolk (setting [7]), the “Chroma C*ab % of Controls” value is given as 107%, the “Color Fan Value % of Controls” value is listed as 116% and the “Color Hue h*ab % of Controls” value came to 101%.
